Results as given in ChEMBL document CHEMBL3507680, “University of Dundee, Gates Library screen for HepG2 cell viability”.

Assay: Human HepG2 cell viability assay in 384 well format
Assay type: toxicity, cell-based
Design: dose 125 nL, time 70.5 hour; concentration not given beside the values
Settings: HepG2 cells, read-out: Inhibition

| Structure (SMILES) | cytotoxicity at 70.5 h [%] |
| --- | --- |
| Cc1cccc(C)c1OC1CN(Cc2cnn(C)c2)C1 | 0.587 |
| Cc1cc(CS(=O)(=O)NC2CCCc3ccccc32)on1 (stereo not given) | -1.17 |
| Cn1cnc2c1CCN(C(C(=O)N1CCCCC1)c1ccccc1)C2 (stereo not given) | -6.79 |
| COc1ccc(C(=O)N2CCCCC2c2ccccn2)c(OC)n1 (stereo not given) | 15.4 |
| CC(C)S(=O)(=O)N1C[C@@H](c2ccccc2)[C@H]2[C@H]1CCCCCN2C | -5.45 |
| Cc1cc(C(C)(O)CNC(=O)OC(C)(C)C)c(C)o1 (stereo not given) | 0.912 |
| COCC(=O)NCc1cc(=O)n2c(n1)CN(C)CCC2 | -3.22 |
| CC(C)(C)c1nnc(CN2CCCC(Cn3cncn3)C2)o1 (stereo not given) | -5.42 |
| O=C1CCC(=O)N1CCn1nnc(-c2cccc(Cl)c2)n1 | 1.35 |
| CN(C)c1cc(C(=O)N2CCCN(Cc3nccn3C)CC2)ccn1 | 14.3 |
| CCc1ccc2nc(C)cc(C(=O)NCc3csc(N(C)C)n3)c2c1 | 16.3 |
| CC(C)c1nc(C2CCCN(C(=O)CCCn3ccnc3)C2)no1 (stereo not given) | -0.752 |
| CCN(CCn1cccn1)Cc1nc(-c2ccoc2)oc1C | 14 |
| Fc1ccc(CN2CCO[C@H]3[C@H](OCCN4CCCC4)CC[C@@H]32)cc1 | -5.14 |
| CSc1ccc(-c2nc(CN3CCCC(CNC(C)=O)C3)c(C)o2)cc1 (stereo not given) | -3.75 |
| COc1ccc2nc(CNC(=O)c3cc(C(C)C)on3)[nH]c2c1 | -14.8 |
| Cc1nn(C)cc1-c1cc(C(F)F)n2nc(CCC(=O)O)nc2n1 | -0.99 |
| Cc1nc(C2(O)CCCNCC2)sc1CCOc1ccccc1F (stereo not given) | 2.34 |
| COCCN1CCO[C@H]2CN(Cc3cc[nH]n3)C[C@H]21 | -7.3 |
| O=C(NCC(O)c1ccc(F)c(F)c1)c1cccnc1OCC(F)(F)F (stereo not given) | -8.69 |
| O=C(c1ccccc1F)N1C[C@H]2CCC[C@@]2(COCc2ccncc2)C1 | -0.88 |
| CCCS(=O)(=O)N1C[C@@H](OCc2ccncc2)[C@H]2OCCC[C@H]21 | -7.43 |
| Cc1cc(C)n(CC2CN(CCOc3cccc(F)c3)CCO2)n1 (stereo not given) | 1.51 |

| Structure (SMILES) | cytotoxicity at 70.5 h [%] |
| --- | --- |
| O=C1NCC2(CCCN(CCc3ccccc3)C2)Oc2ccccc21 (stereo not given) | 21.7 |
| Cc1nn(C)c(Cl)c1C1CCCN1Cc1nc(C2CC2)no1 (stereo not given) | -7.26 |
| CCN(CC)S(=O)(=O)N(C)Cc1ccncc1 | -8.49 |
| CN(Cc1nc2ccccc2o1)C1CCCN(c2cccnn2)C1 (stereo not given) | 4.68 |
| CC(=O)N1CCCC1c1cccc(Cc2ccccc2Cl)n1 (stereo not given) | 0.0226 |
| CNC(=O)COC(=O)c1cccc(-n2ccc(C(F)(F)F)n2)c1 | 0.44 |
| COc1ccc(OC)c(C2CCN(C(=O)C3CCS(=O)(=O)CC3)C2)c1 (stereo not given) | -7.16 |
| CC(C)C(=O)NCCNC(=O)C(C)OCC(F)(F)F (stereo not given) | -8.9 |
| CCCn1ccnc1-c1nccn1CCC(N)=O | -7.75 |
| Cc1ccc(NC2CCN(C(=O)CCc3ccncc3)CC2)nn1 | -7.44 |
| CS(=O)(=O)Cc1ccc(C(=O)NC2CCc3nccn3C2)o1 (stereo not given) | -6.33 |
| Cc1nc2c(c(NCC(O)C(F)(F)F)n1)CCNCC2 (stereo not given) | 11.7 |
| CCN(C)c1ccc(CNC(=O)CCn2cc(C)cn2)cc1F | -1.28 |
| Cn1cc(CCCNC(=O)NC2CCN(c3ccccc3)C2=O)cn1 (stereo not given) | -5.19 |
| O=C1CCOCCN1Cc1ccc(Cl)c(F)c1 | 23.1 |
| CCCC(=O)N1CCC2(CC1)CC(NC(C)=O)c1ccccc1O2 (stereo not given) | -13.7 |
| Cc1occc(=O)c1OCc1noc(C(=O)NC2CCCC2)n1 | -16.2 |
| COc1ccnc(N(C)Cc2ccccc2OC(F)(F)F)n1 | -1.49 |
| CCc1noc(-c2cccc(C(=O)O)c2)n1 | 23.7 |
| COc1cc(C(=O)N(C)Cc2cc(C(=O)O)c(C)o2)cc(OC)c1OC | -7.77 |
| O=C(CCc1nc2cccnc2[nH]1)Nc1ccc2c(c1)OCC(=O)N2 | -10.5 |
| Cc1ccc(C(=O)N2CCCC3(C2)C(=O)N(C)c2ccccc23)c(=O)[nH]1 (stereo not given) | -10.2 |
